Blank lines part the entries; values can stand above or below the compound they belong to.
Columns and labels:
[1] = tested on: Jurkat cells; assay: Cell viability (MTS); format: cell-based; details: 48 hours
Method: (§1) Cells were cultured in RPMI-1640 containing 10% FBS (Jurkat and THP-1) or DMEM containing 10% FBS (A549 and MDA-MB-435). On Day 1, 1-5×10^4 cells per well in 100 μL of the cell culture medium containing 0.5% FBS were seeded into a 96-well flat bottom plate. On Day 2, the test compounds were added to the culture at different concentrations in triplicates. The controls include triplicates of no compound treatment and cell culture medium without cells. The cells were incubated at 5% CO2, 37° C. for 48 hours. On Day 4, MTS reagent was added to each well and incubated at 37° C. for 4 hours. The absorbance was read at 490 nm. The percentage of inhibition was calculated using the formula: [1-(experiment reading-background reading)/(negative control reading-background reading)]×100.

[2] = tested on: MDA-MB-435 cells; assay: Cell viability (MTS); format: cell-based
Method: as §1

[3] = tested on: THP1 cells; assay: Cell viability (MTS); format: cell-based
Method: as §1

[4] = tested on: A549 cells; assay: Cell viability (MTS); format: cell-based
Method: as §1

[5] = tested on: Jurkat cells; assay: Cell proliferation ([3H]-thymidine); format: cell-based; details: 48 hours, read-out: Anti-proliferation IC50, Jurkat
Method: (§2) Cells were cultured in RPMI-1640 containing 10% FBS (Jurkat) or DMEM containing 10% FBS (MDA-MB-435). On Day 1, 1×10^4 cells were seeded into one well of a 96-well white ISOPLATE™ with 0.5% FBS. The cells were cultured at 5% CO2, 37° C. overnight. On Day 2, the diluted test compounds were added into each well in a total volume of 100 μL of cell culture medium. For each cell line were set up three wells containing cells and only diluted DMSO as a negative (vehicle) control, and three wells without cells but containing the same volume and type of cell culture medium as background control. The cells were incubated at 5% CO2, 37° C. for 24 hours. On Day 3, 1 μL of [^3H]-thymidine was added into each well and incubation at 5% CO2, 37° C. was continued for another 24 hours. On Day 4, 30 μL of 50% TCA was added into each well and was incubated at 4° C. for 4 hours. Plates were washed with ddH2O four times and then air dried for 30 minutes followed by the addition of 100 μL of scintillation fluid into each well. The radioactivity was read using MICROBETA TRILUX™. The percentage of inhibition was calculated using the formula [1-(experiment reading-background reading)/(negative control reading-background reading)]×100.

[6] = tested on: MDA-MB-435 cells; assay: Cell proliferation ([3H]-thymidine); format: cell-based; details: read-out: Anti-proliferation IC50, MDA-MB-435
Method: as §2

[7] = target: AMPK (A1/B1/G1) (Homo sapiens, UniProt Q13131); assay: Kinase profiling, recombinant kinase; format: biochemical; details: 5 uM ATP
[8] = target: AKT1 (Homo sapiens, UniProt P31749); assay: Kinase profiling, recombinant kinase; format: biochemical; details: 5 uM ATP
Chain of AKT1 (P31749 whole entry, species assumed): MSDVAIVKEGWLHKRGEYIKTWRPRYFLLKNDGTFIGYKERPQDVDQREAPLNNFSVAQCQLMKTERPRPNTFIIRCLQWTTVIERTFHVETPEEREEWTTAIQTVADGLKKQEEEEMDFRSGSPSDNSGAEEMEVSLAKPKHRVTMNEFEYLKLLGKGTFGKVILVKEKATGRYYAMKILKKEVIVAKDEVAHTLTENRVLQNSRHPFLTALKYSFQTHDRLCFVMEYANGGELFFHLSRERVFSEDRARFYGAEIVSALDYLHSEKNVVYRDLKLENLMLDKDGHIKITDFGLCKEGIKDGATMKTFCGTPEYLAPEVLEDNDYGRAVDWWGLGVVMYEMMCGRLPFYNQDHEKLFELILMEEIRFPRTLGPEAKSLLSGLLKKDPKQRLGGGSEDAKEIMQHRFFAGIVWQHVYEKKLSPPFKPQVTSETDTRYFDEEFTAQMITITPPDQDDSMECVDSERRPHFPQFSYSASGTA
Method: (§3) Kinase profiling was conducted using different recombinant kinase targets against the compounds at 5 uM ATP. The kinases tested included AKT1 (RAC-alpha serine/threonine-protein kinas 1), JAK2, JAK3, p38α, p38β (p38 mitogen-activated protein kinase beta), GSK3β, SYK (Spleen tyrosine kinase), LCK, IKKα and IKKβ and CLK4. The test compounds were tested at 5 μM and 50 μM in triplicates.

[9] = target: CLK4 (Homo sapiens, UniProt Q9HAZ1); assay: Kinase profiling, recombinant kinase; format: biochemical; details: 5 uM ATP
Chain of CLK4 (Q9HAZ1 whole entry, species assumed): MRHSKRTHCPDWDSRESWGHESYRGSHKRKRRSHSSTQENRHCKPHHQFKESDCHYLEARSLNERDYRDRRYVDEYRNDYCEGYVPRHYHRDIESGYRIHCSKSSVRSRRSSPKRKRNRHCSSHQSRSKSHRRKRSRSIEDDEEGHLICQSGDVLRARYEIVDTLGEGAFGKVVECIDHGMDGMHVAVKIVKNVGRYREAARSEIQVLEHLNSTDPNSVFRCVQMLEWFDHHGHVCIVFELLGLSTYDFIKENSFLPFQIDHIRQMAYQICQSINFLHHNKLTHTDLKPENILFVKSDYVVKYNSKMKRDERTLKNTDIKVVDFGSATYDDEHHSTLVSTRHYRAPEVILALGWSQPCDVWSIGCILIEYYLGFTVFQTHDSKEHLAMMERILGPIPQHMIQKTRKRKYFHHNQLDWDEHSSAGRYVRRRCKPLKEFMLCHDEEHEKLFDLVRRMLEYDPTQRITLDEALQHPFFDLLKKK
Method: as §3

[10] = target: GSK3 β (Homo sapiens, UniProt P49841); assay: Kinase profiling, recombinant kinase; format: biochemical; details: 5 uM ATP
Chain of GSK3 β (P49841 whole entry, species assumed): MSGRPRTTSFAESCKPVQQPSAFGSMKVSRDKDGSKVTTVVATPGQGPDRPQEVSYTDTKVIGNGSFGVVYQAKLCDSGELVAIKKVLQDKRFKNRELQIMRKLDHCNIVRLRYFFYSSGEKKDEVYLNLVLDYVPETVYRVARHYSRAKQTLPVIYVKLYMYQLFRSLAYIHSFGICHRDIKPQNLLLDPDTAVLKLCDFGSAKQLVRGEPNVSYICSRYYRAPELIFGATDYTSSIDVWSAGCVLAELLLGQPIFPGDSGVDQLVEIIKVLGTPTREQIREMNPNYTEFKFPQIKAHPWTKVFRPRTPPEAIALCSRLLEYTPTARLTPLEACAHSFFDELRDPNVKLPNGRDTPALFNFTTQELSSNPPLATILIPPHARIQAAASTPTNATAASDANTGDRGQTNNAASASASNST
Method: as §3

[11] = target: IKK α (Homo sapiens, UniProt O15111); assay: Kinase profiling, recombinant kinase; format: biochemical; details: 5 uM ATP
Method: as §3

[12] = target: IKK β (Homo sapiens, UniProt O14920); assay: Kinase profiling, recombinant kinase; format: biochemical; details: 5 uM ATP
Chain of IKK β (O14920 whole entry, species assumed): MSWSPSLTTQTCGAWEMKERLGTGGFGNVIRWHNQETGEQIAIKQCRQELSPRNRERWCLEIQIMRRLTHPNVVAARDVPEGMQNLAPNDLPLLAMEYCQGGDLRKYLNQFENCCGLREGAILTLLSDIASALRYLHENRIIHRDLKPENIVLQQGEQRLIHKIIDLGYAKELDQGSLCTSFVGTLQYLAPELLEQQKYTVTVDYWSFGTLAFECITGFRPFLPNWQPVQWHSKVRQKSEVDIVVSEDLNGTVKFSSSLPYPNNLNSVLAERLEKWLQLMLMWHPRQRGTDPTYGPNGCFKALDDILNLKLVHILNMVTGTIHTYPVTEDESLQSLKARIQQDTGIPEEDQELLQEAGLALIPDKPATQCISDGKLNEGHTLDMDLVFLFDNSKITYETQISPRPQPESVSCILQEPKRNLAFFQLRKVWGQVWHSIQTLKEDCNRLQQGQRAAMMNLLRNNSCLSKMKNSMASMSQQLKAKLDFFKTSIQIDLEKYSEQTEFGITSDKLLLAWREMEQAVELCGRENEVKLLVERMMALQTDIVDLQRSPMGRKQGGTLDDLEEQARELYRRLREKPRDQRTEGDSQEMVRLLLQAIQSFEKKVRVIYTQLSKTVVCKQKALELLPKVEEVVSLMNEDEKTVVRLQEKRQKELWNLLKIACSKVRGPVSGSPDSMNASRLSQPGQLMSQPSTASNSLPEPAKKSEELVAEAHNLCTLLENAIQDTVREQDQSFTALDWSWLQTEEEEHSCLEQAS
Method: as §3

[13] = target: JAK2 (Homo sapiens, UniProt O60674); assay: Kinase profiling, recombinant kinase; format: biochemical; details: 5 uM ATP
Method: as §3

[14] = target: JAK3 (Homo sapiens, UniProt P52333); assay: Kinase profiling, recombinant kinase; format: biochemical; details: 5 uM ATP
Chain of JAK3 (P52333 whole entry, species assumed): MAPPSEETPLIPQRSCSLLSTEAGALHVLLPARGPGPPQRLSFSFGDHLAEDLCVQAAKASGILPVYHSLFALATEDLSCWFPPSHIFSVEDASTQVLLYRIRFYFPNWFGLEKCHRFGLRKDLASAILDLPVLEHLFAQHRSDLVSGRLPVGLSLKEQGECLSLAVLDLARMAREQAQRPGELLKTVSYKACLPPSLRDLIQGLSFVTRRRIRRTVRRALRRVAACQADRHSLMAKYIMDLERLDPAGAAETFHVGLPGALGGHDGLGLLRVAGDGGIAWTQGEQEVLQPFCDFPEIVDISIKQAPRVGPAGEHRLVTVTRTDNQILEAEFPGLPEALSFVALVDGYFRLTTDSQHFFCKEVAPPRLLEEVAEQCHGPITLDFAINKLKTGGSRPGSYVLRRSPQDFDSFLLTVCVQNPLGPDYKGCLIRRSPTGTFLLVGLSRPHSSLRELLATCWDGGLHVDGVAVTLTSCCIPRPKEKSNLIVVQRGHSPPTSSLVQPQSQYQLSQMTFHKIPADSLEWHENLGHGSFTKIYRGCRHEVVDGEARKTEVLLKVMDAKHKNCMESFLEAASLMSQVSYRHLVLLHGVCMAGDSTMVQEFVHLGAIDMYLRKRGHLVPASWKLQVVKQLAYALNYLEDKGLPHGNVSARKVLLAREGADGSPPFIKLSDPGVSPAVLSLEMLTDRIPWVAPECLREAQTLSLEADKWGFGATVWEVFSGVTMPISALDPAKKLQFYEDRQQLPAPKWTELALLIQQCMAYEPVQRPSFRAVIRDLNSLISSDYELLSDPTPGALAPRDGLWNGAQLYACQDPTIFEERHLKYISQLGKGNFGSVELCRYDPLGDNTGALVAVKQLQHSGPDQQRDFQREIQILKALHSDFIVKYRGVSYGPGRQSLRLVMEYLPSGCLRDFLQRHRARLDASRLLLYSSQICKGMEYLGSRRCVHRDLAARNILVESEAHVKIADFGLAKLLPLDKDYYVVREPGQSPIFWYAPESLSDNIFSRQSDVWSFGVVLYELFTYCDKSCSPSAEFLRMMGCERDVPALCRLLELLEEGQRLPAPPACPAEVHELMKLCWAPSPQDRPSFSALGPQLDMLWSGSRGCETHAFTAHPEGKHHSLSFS
Method: as §3

[15] = target: LCK (Homo sapiens, UniProt P06239); assay: Kinase profiling, recombinant kinase; format: biochemical; details: 5 uM ATP
Chain of LCK (P06239 whole entry, species assumed): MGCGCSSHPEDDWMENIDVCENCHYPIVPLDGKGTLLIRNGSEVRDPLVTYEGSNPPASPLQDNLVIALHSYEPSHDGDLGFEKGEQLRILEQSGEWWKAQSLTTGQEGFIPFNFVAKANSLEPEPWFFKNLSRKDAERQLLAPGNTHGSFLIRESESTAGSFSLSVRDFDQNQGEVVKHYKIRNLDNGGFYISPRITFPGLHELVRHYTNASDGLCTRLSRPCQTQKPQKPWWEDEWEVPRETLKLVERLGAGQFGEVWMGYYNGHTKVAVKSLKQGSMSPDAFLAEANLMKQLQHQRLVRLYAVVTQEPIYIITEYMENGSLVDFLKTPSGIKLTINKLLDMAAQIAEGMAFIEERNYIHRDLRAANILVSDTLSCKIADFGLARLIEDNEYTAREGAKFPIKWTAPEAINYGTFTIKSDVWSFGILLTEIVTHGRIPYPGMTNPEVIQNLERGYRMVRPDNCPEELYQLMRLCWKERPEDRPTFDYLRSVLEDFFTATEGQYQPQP
Method: as §3

[16] = target: SYK (Homo sapiens, UniProt P43405); assay: Kinase profiling, recombinant kinase; format: biochemical; details: 5 uM ATP
Method: as §3

[17] = target: p38 α (Homo sapiens, UniProt Q16539); assay: Kinase profiling, recombinant kinase; format: biochemical; details: 5 uM ATP
Method: as §3

[18] = target: p38 β (Homo sapiens, UniProt Q15759); assay: Kinase profiling, recombinant kinase; format: biochemical; details: 5 uM ATP
Chain of p38 β (Q15759 whole entry): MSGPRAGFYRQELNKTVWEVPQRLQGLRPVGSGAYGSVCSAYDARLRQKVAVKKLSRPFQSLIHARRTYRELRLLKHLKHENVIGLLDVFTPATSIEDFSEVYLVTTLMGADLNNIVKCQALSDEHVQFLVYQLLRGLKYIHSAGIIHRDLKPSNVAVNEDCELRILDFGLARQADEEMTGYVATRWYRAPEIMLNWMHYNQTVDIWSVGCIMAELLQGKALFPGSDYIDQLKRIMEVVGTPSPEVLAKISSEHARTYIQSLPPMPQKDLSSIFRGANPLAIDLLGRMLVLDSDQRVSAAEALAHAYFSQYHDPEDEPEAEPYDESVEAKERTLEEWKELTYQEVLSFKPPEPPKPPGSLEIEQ
Method: as §3

[19] = target: T1, recombinant human PDE4B1 enzyme (Homo sapiens, UniProt Q07343); assay: PDE4B1 radiometric enzyme assay; format: biochemical; details: for Inhibitory activity on PDE4B1 enzyme: 1 μM cAMP
T1 construct: host or cells: baculoviral system
T1 sequence (Q07343 whole entry): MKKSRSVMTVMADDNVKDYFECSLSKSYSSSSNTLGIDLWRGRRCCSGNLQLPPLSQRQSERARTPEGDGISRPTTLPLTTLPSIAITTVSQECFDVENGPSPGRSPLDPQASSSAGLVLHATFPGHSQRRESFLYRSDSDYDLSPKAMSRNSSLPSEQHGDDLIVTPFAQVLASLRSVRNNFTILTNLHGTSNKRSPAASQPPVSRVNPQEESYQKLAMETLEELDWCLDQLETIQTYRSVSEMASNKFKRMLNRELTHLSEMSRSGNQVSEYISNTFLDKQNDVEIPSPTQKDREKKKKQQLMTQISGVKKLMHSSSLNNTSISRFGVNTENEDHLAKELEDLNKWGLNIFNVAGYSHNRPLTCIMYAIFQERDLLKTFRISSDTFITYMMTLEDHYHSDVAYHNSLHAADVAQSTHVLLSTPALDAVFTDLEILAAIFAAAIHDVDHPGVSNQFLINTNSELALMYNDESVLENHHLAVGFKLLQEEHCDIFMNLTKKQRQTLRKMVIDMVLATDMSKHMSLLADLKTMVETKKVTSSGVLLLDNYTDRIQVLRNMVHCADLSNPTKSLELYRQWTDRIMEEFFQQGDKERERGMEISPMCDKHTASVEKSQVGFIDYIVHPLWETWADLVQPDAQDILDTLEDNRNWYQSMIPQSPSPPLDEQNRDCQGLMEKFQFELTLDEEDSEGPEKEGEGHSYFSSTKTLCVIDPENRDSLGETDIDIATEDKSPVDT
Method: Assays were performed using recombinant human PDE4B1 enzyme expressed in a baculoviral system. […] The reactions were performed at 1 μM of cAMP. The test articles were each tested at 0.2 μM and 20 μM in triplicates.

[20] = tested on: dextran sodium sulphate (DSS) induced model of inflammatory bowel disease (IBD)/colitis; assay: DSS induced model of IBD/colitis; format: in vivo, female Balb/c mice; details: Day 0 to Day 8, DSS control group 24.2+5.7, normal control 1.9+2.4
Method: The efficacy of Compound 2 was tested in a dextran sodium sulphate (DSS) induced model of inflammatory bowel disease (IBD)/colitis in female Balb/c mice. Rolipram was used as a positive control in this experiment. Colitis was induced in the mice by providing drinking water containing DSS (3.5%, M. Wt. 30,000-50,000) from Day 0 to Day 8. The test compounds were administered as per their respective groups at specific dose levels starting from Day 0 through to Day 8. […] For dosing, Compound 2 was dissolved in vehicle (1.5% Cremophor EL) at 3 mg/mL and 1 mg/mL for the 30 and 10 mg/kg doses, respectively. […] All doses were administered by oral gavage.
There was a considerable increase in disease activity index (DAI) (cumulative scores of body weight, stool consistency and rectal bleeding) in the DSS control group (24.2+5.7) when compared to normal control group (1.9+2.4) which indicated very good disease induction.

[21] = target: T2, Aryl Hydrocarbon Receptor (AhR) (Homo sapiens, UniProt P35869); assay: AhR-CYP1A1-bla LS-180 beta-lactamase reporter assay; format: cell-based; details: AhR-CYP1A1-bla LS-180 cells, 24 hours; read-out: EC50, AhR activation
T2 construct: host or cells: AhR-CYP1A1-bla LS-180
Method: This assay was performed using Invitrogen's CellSensor® cell line AhR-CYP1A1-bla LS-180 with GeneBLAzer® Beta-lactamase (bla) Reporter Technology as the detection method. When the AhR-CYP1A1 pathway is activated or inhibited, Beta-lactamase reporter activity is modulated and is measured quantitatively and selectively with the LiveBLAzer™-FRET B/G Loading Substrate.
Briefly, the AhR-CYP1A1-bla LS-180 cells were grown in Growth Media (MEM, 10% FBS, 0.1 mM NEAA, 1 mM Sodium Pyruvate). Cells were dissociated and resuspended in Assay Media (OPTI-MEM, 0.5% dialyzed FBS, 0.1 mM NEAA, 1 mM Sodium Pyruvate). Around 2×10^4 cells in a volume of 32 μL of assay media was added to each well of a 384 well Poly-D-Lysine assay plate. After incubation for 16 hours at 37° C. in a humidified incubator, 4 μL of a 10× serial dilution of test compounds were added to appropriate wells of the plate. The plate was incubated for 24 hours at 37° C. For the reporter activity assay, 8 μL of 1 μM Substrate was added to each well and the plate was incubated for 2 hours at room temperature. The plate was read on a fluorescence plate reader.

[22] = tested on: ICAM-1; assay: BioMap BF4T lung epithelium inflammation system; format: cell-based; details: stimulated human primary bronchial epithelial cells, 24 hours, ELISA
Method: (§4) The compounds were assayed in the Eurofin's BioMap system (BF4T Cells) which models Th2-type lung inflammation, an environment that promotes the recruitment of eosinophils, mast cells, neutrophils, and basophils as well as effector memory T cells. This system is relevant for allergy and asthma, pulmonary fibrosis, as well as chronic obstructive pulmonary disorder (COPD) exacerbations. The human primary bronchial epithelial cells were cultured and stimulated to induce the inflammatory factors responsible for the pathogenesis of various inflammatory diseases in the lung. The test compounds were added to the in vitro model culture system and incubated for 24 hours. The supernatants were collected and assayed for the protein production of various molecules using ELISA assays. The biomarkers assayed included MCP-1, Eotaxin-3, VCAM-1, ICAM-1, CD90, IL-8, IL1α, Keratin 8/18, MMP1, MMP-3, MMP-9, PAI-1, SRB, tPA, and uPA.

[23] = tested on: IL-1α; assay: BioMap BF4T lung epithelium inflammation system; format: cell-based; details: stimulated human primary bronchial epithelial cells, 24 hours, ELISA
Method: as §4

[24] = tested on: IL-8; assay: BioMap BF4T lung epithelium inflammation system; format: cell-based; details: stimulated human primary bronchial epithelial cells, 24 hours, ELISA
Method: as §4

[25] = tested on: VCAM-1; assay: BioMap BF4T lung epithelium inflammation system; format: cell-based; details: stimulated human primary bronchial epithelial cells, 24 hours, ELISA
Method: as §4

[26] = Homo sapiens, MDA-MB-435, 48 hours
[27] = read-out: Inhibitory activity on PDE4B1 enzyme

IC50 ([4]; 48 hours): 32000 nM
IC50 [1]: 1650 nM
IC50 ([2]; 48 hours): 1620 nM
IC50 ([3]; 48 hours): 15400 nM
Inhibitory activity on PDE4B1 enzyme ([19]; 0.2 μM compound): + (“+” is 15-30% inhibition)
SMILES: Oc1cc(/C=C/c2ccc(F)cc2)ccc1C1CC1 [Compound 12]
Inhibitory activity on PDE4B1 enzyme ([19]; 20 μM compound): +++ (“+++” is greater than 50% inhibition)

IC50 [1]: 7980 nM
IC50 ([2]; 48 hours): 1780 nM
IC50 ([3]; 48 hours): 2740 nM
IC50 [5]: 1380 nM
IC50 ([6]; 48 hours): 1660 nM
SMILES: N#Cc1ccc(/C=C/c2ccc(C3CC3)c(O)c2)c(C#N)c1 [Compound 17]

The next lines start with the compound.

SMILES: CC(C)c1ccc(/C=C/c2ccccc2)cc1O [Compound 1]
IC50 [1]: 2160 nM
IC50 ([2]; 48 hours): 25000 nM
IC50 ([3]; 48 hours): 2250 nM

SMILES: CC(C)c1ccc(/C=C/c2ccc(F)cc2)cc1O [Compound 2, 3-hydroxy-4-isopropyl-4′-fluoro-(E)-stilbene]
IC50 ([4]; Homo sapiens, A549, 48 hours): 45000 nM
IC50 ([1]; Homo sapiens, Jurkat): 7600 nM
IC50 [2, 26]: 24900 nM
IC50 ([3]; Homo sapiens, THP-1, 48 hours): 3150 nM
IC50 ([5]; Homo sapiens, Jurkat): 1670 nM
IC50 [6, 26]: 6020 nM
inhibition at 5 µM ([7]; 5 μM compound): < 20%
inhibition at 50 µM ([7]; 50 μM compound): > 50%
inhibition at 5 µM ([8]; 5 μM compound): < 20%
inhibition at 50 µM ([8]; 50 μM compound): < 20%
inhibition at 5 µM ([9]; 5 μM compound): > 50%
inhibition at 50 µM ([9]; 50 μM compound): > 50%
inhibition at 5 µM ([10]; 5 μM compound): < 20%
inhibition at 50 µM ([10]; 50 μM compound): > 50%
inhibition at 5 µM ([11]; 5 μM compound): < 20%
inhibition at 50 µM ([11]; 50 μM compound): < 20%
inhibition at 5 µM ([12]; 5 μM compound): < 20%
inhibition at 50 µM ([12]; 50 μM compound): 31 to 50%
inhibition at 5 µM ([13]; 5 μM compound): < 20%
inhibition at 50 µM ([13]; 50 μM compound): > 50%
inhibition at 5 µM ([14]; 5 μM compound): < 20%
inhibition at 50 µM ([14]; 50 μM compound): 20 to 30%
inhibition at 5 µM ([15]; 5 μM compound): < 20%
inhibition at 50 µM ([15]; 50 μM compound): 31 to 50%
inhibition at 5 µM ([16]; 5 μM compound): < 20%
inhibition at 50 µM ([16]; 50 μM compound): < 20%
inhibition at 5 µM ([17]; 5 μM compound): < 20%
inhibition at 50 µM ([17]; 50 μM compound): > 50%
inhibition at 5 µM ([18]; 5 μM compound): < 20%
inhibition at 50 µM ([18]; 50 μM compound): 20 to 30%
inhibition at 0.2 µM [19, 27]: 15 to 30%
inhibition at 20 µM [19, 27]: > 50%
disease activity index (DAI) (cumulative scores of body weight, stool consistency and rectal bleeding) ([20]; 10 mg/kg oral gavage): 17.4+12.0
disease activity index (DAI) (cumulative scores of body weight, stool consistency and rectal bleeding) ([20]; 30 mg/kg oral gavage): 15.4+4.9
EC50 [21]: 27 nM
effect on production of ICAM-1 [22]: suppress the production
effect on production of IL-1α [23]: suppress the production
effect on production of IL-8 [24]: suppress the production
effect on production of VCAM-1 [25]: suppress the production

SMILES: Oc1cc(/C=C/c2ccccc2)ccc1C1CC1 [Compound 11]
IC50 [5]: 1710 nM
IC50 ([6]; 48 hours): 4250 nM
